Tests used:
[1] = system: P. falciparum male gametocytes; assay: P. falciparum Dual Gamete Formation Assay (PfDGFA), male readout (exflagellation); format: cell-based, Plasmodium falciparum NF54; conditions: for Average inhibition male (%): average of replicates; for % inhibition male (individual replicates) R1: replicate R1; for % inhibition male (individual replicates) R3: replicate R3; for % inhibition male (individual replicates) R4: replicate R4; for Activity: hit = >50% inhibition in male or female readout in at least 3 replicates, 0 = no class assigned
Method in brief: (§1)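 NF54 mature gametocytes (d14), cpd 24 h 37°C hypoxic gas; trigger: xanthurenic acid ookinete medium + Cy3 anti-Pfs25, 4°C 4 min → 28°C 4 min. Male: exflagellation centres, brightfield x6. Female: Pfs25+ gametes, fluorescence, +24 h 28°C dark.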

[2] = system: P. falciparum female gametocytes; assay: P. falciparum Dual Gamete Formation Assay (PfDGFA), female readout (Pfs25-positive female gametes); format: cell-based, Plasmodium falciparum NF54; conditions: for Average inhibition female (%): average of replicates; for % inhibition female (individual replicates) R1: replicate R1; for % inhibition female (individual replicates) R3: replicate R3; for % inhibition female (individual replicates) R4: replicate R4
Method in brief: as §1

[3] = 2µM, 24h preincubation with gametocytes prior to induction of gametogenesis
[4] = 2µM, 24h preincubation, number of replicates with >50% inhibition in the male readout
[5] = 2µM, 24h preincubation, number of replicates with >50% inhibition in the female readout
[6] = PfDGFA at 2µM, 24h preincubation with gametocytes prior to induction of gametogenesis
[7] = PfDGFA at 2µM, 24h preincubation
[8] = 2µM, 24h preincubation, hits selected on >50% inhibition in the male readout across replicates
[9] = 2µM, 24h preincubation, hits selected on >50% inhibition in the female readout across replicates
[10] = PfDGFA at 2µM, 24h preincubation with gametocytes

Structure (SMILES) | Average inhibition male (%) [1, 3] [%] | % inhibition male (individual replicates) R1 [1, 3] [%] | % inhibition male (individual replicates) R3 [1, 3] [%] | % inhibition male (individual replicates) R4 [1, 3] [%] | HitlevelM [1, 4] | Average inhibition female (%) [2, 3] [%] | % inhibition female (individual replicates) R1 [2, 3] [%] | % inhibition female (individual replicates) R3 [2, 3] [%] | % inhibition female (individual replicates) R4 [2, 3] [%] | HitlevelF [2, 5] | % inhibition male (individual replicates) R1 [1, 6] [%] | % inhibition male (individual replicates) R4 [1, 6] [%] | Average inhibition male (%) [1, 7] [%] | % inhibition female (individual replicates) R1 [2, 6] [%] | % inhibition female (individual replicates) R3 [2, 6] [%] | % inhibition female (individual replicates) R4 [2, 6] [%] | Average inhibition female (%) [2, 7] [%] | further results
COc1cc(NC(=O)c2sc(-c3ccc(Cl)cc3)cc2NC(=O)c2cccnc2)ccc1OCCN1CCCC1 [TCMDC-135397] | 57.2 | 45.5 | 40.3 | 71.6 | 2 | 46.9 | 19.3 | 58.0 | 48.0 | 2 |  |  |  |  |  |  |  | 
CCCCN(Cc1cc(Cl)c(OC)c(OC)c1)c1ccc(C(O)(C(F)(F)F)C(F)(F)F)cc1.O=C(O)C(F)(F)F [TCMDC-135446] |  |  |  |  |  |  |  |  |  |  | -14.8 | -29.5 | -22.3 | 1.9 | -6.9 | 1.5 | -3.4 | 
NCCCNc1nccc(N2CCc3ncnc(Nc4ccc(OCc5cccc(F)c5)c(Cl)c4)c3C2)n1 [TCMDC-135456] | -16.9 | -14.5 | -30.0 | -11.8 |  | 13.8 | 10.7 | -9.6 | 40.7 |  |  |  |  |  |  |  |  | HitlevelM [1, 8]: 0; Activity [1, 7]: 0; HitlevelF [2, 9]: 0
COc1cc2ccccc2cc1OCCCN1CCN(CC(c2ccc(F)cc2)N2CCN(C(C)C)CC2)CC1.Cl (stereo not drawn) [TCMDC-135496] | 6.1 | 10.5 | -16.9 | 18.2 | 0 | 22.9 | 29.5 | 8.0 | 29.0 | 0 |  |  |  |  |  |  |  | 
CC(C)N1CCN(C(CN2CCN(CCCOc3ccccc3-c3ccccc3)CC2)c2ccc(F)cc2)CC1.Cl (stereo not drawn) [TCMDC-135499] | 13.5 | 15.7 | 14.1 | 9.5 | 0 | 28.0 | 23.1 | 16.4 | 32.9 | 0 |  |  |  |  |  |  |  | 
CC(=O)Nc1cccc(Nc2nccc(-c3c(-c4cccc(NC(=O)c5c(F)cccc5F)c4)nn4ncccc34)n2)c1 [TCMDC-135548] |  |  |  |  |  |  |  |  |  |  | 29.2 | -3.8 | 8.8 | -7.4 | -25.4 | -8.4 | -11.7 | % inhibition male (individual replicates) R3 [1, 6]: 23.6%
CCS(=O)(=O)c1ccc(OC)c(Nc2nccc(-c3c(-c4cccc(NC(=O)c5c(F)cccc5F)c4)nn4ncccc34)n2)c1 [TCMDC-135682] | 69.4 | 83.8 |  | 34.3 |  | 14.6 | 17.1 | 13.9 | 13.6 |  |  |  |  |  |  |  |  | HitlevelM [1, 8]: 2; Activity [1, 7]: 0; HitlevelF [2, 9]: 0
C[C@@H](Oc1cc(-n2cnc3ccc(OCC4CCN(S(C)(=O)=O)CC4)cc32)sc1C(N)=O)c1ccccc1C(F)(F)F [TCMDC-135685] | 39.3 | 77.8 | 32.6 | -12.5 | 2 | 30.5 | 13.3 | 19.8 | 50.4 | 1 |  |  |  |  |  |  |  | 
COc1ccc2ncc(F)c(CCN3CCC(NCc4cc(F)c5c(c4)OCCO5)CC3)c2n1.Cl [TCMDC-135849] |  |  |  |  |  |  |  |  |  |  | -15.0 | -21.8 | -22.8 | 9.2 | -25.5 | 10.6 | -0.168 | % inhibition male (individual replicates) R3 [1, 6]: -30.0%
COc1ccc(-c2cnc3[nH]cc(-c4ccncc4)c3c2)cc1OC [TCMDC-135853] |  |  |  |  |  |  |  |  |  |  |  |  |  |  |  |  |  | Average inhibition male (%) [1, 10]: 73.2%; % inhibition male (individual replicates) R1 [1, 10]: 70.5%; % inhibition male (individual replicates) R3 [1, 10]: 62.1%; % inhibition male (individual replicates) R4 [1, 10]: 76.3%; HitlevelM ([1]; number of replicates with >50% inhibition in the male readout, 2µM): 4; Average inhibition female (%) [2, 10]: 15.5%; % inhibition female (individual replicates) R1 [2, 10]: 9.0%; % inhibition female (individual replicates) R3 [2, 10]: 36.4%; % inhibition female (individual replicates) R4 [2, 10]: 5.3%; HitlevelF ([2]; number of replicates with >50% inhibition in the female readout, 2µM): 0
CC(C)CN1CCC(COc2ccc3ncn(-c4cc(O[C@H](C)c5ccccc5C(F)(F)F)c(C(N)=O)s4)c3c2)CC1 [TCMDC-135856] |  |  |  |  |  |  |  |  |  |  | 69.3 | -19.8 | 39.0 | -5.1 | 3.7 | -5.5 | -0.7 | 
COc1ccc2ccccc2c1CCCCN1CCN(CC(c2ccc(F)cc2)N2CCC(N3CCCC3)CC2)CC1.O=C(O)C(F)(F)F (stereo not drawn) [TCMDC-135866] | 26.2 | 24.9 | 0.4 | 58.9 | 1 | 23.8 | 27.0 | 20.6 | 10.9 | 0 |  |  |  |  |  |  |  | 
COc1ccc2ccccc2c1CCCCN1CCN(CC(c2ccc(F)cc2)N2CCC2)CC1.O=C(O)C(F)(F)F (stereo not drawn) [TCMDC-135867] | 8.0 | -5.9 | -10.3 | 17.6 | 0 | 37.8 | 32.4 | 22.8 | 37.2 | 1 |  |  |  |  |  |  |  | 
Cc1c(OC(C)C)nc2ccccc2c1C(=O)N[C@H](c1cccc(F)c1)C1CC1 [TCMDC-135994] |  |  |  |  |  |  |  |  |  |  | 5.7 | 25.6 | 14.7 | 11.9 | -14.7 | 16.8 | 1.3 | % inhibition male (individual replicates) R3 [1, 6]: 14.1%
